This note sets out measurements from US20260207765A1, “COVALENTLY-MODIFIED STEROID ACID-PEPTIDES HAVING ENHANCED STABILITY AND/OR BIOLOGICAL ACTIVITY” (priority 2022, published 2026).

In one data set the test system is EL4 lymphoma cells. Briefly: Apoptosis analysis / kill curve by flow cytometry (Annexin-V, PI). The class given is cell-based, mouse. Here is the method: (§1) Apoptosis analysis was conducted by flow-cytometry. Briefly, target cells were first treated then washed. Treated cells were then re-suspended in Annexin-V staining buffer prior to staining with Annexin-V and propidium iodine (PI). Fifteen minutes later, cells were washed prior to analysis using BD FACS™ Diva on CANTOII™.

A further data set has as its system 4T1 breast cancer cells. Briefly: Apoptosis analysis by flow cytometry. The data set is classed as cell-based. The note with it: 95 and 190 μM. On the procedure: as §1
The subject of a further data set is B16 melanoma cells. Briefly: Apoptosis analysis by flow cytometry. The data set is classed as cell-based. The note with it: 95 and 190 μM. On the procedure: as §1
Data set [1] concerns CT-26 colon carcinoma cells. Briefly: Apoptosis analysis by flow cytometry. The data set is classed as cell-based. The note with it: 95 and 190 μM. On the procedure:
as §1

Data set [2] deals with E0771 breast cancer cells. The data set can be described thus: Apoptosis analysis by flow cytometry. The class given is cell-based. The note with it: 95 and 190 μM. On the procedure: as §1
Data set [3] has as its system JIMT-1 breast cancer cells. The data set can be described thus: Cytotoxicity of steroid acid-peptide conjugates in JIMT-1 cells. The data set is classed as cell-based. The note with it: 6.4 μM. On the procedure:
as §1
50 mg of CDCA-C-SV40 monomers (or other steroid acid-peptide monomers) were resuspended in 200-500 μL of DMSO. 10 eq of N,N-Diisopropylethylamine (DIPEA) was added to the mixture and incubated in a thermomixer at 37° C. with agitation (1000 rpm) overnight, enabling dimerization of the monomers via their N-terminal cysteine thiol groups to produce (CDCA-C-SV40)2 or other dimers. The samples were then analyzed by UPLC-MS to evaluate dimer formation efficiency. Cell toxicity was evaluated via a Cell Toxicity assay (PrestoBlue™).

A short description of data set [4]: Stability testing (impurities by HPLC). The class given is physicochemical. From the text: GMP synthesis of the CDCA-C-SV40 monomer yielded a white powder and the results of initial stability testing is summarized below:
As shown above, two main impurities were detected by HPLC relating to the reactivity of the free thiol group of the CDCA-C-SV40 monomer, namely impurities resulting from oxidation of the thiol group (Impurity A) and the formation an intermolecular disulfide bond via the thiol groups of two CDCA-C-SV40 monomers, producing a (CDCA-C-SV40)2 dimer (Impurity B).
To attempt to improve stability, the synthesis protocol of CDCA-C-SV40 was modified to produce the conjugate directly in its dimerized form (Impurity B). […] At 25° C., total impurities rose only slightly from 1.6% at Day 0 to 2.1% after 3 months. At 40° C., total impurities rose from 1.6% at Day 0 to 1.7% after 5 days, 2.4% after 10 days, and to 3.7% after 30 days.

For the next data set, the system named is murine MSCs. Briefly: Maximum tolerated dose on murine MSCs over 24 h. The class given is cell-based. The note with it: 50 μM.
The test system of data set [5] is wild-type MSC and B3Z reporter system. The data set can be described thus: Antigen cross-presentation, wild-type MSC and B3Z reporter system. The note with it: 100 μM.

Molecules are shown by their SMILES. Positions of bridges follow the written chain, without caps; N, C: chain ends. Residues, ends and D or L forms follow the SMILES beside them. Chains are numbered I, II in the order given. *: point of attachment. Chenodeoxycholyl = C[C@H](CCC(=O)*)[C@H]1CC[C@H]2[C@@H]3[C@H](O)C[C@@H]4C[C@H](O)CC[C@]4(C)[C@H]3CC[C@]12C

With `CC(C)[C@H](NC(=O)[C@H](CCCCN)NC(=O)[C@H](CCCNC(=N)N)NC(=O)[C@H](CCCCN)NC(=O)[C@H](CCCCN)NC(=O)[C@H](CCCCN)NC(=O)[C@@H]1CCCN1C(=O)CNC(=O)[C@H](Cc1ccc(O)cc1)NC(=O)CNC(=O)[C@H](CSSC[C@H](NC(=O)CC[C@@H](C)[C@H]1CC[C@H]2[C@@H]3[C@H](O)C[C@@H]4C[C@H](O)CC[C@]4(C)[C@H]3CC[C@]12C)C(=O)NCC(=O)N[C@@H](Cc1ccc(O)cc1)C(=O)NCC(=O)N1CCC[C@H]1C(=O)N[C@@H](CCCCN)C(=O)N[C@@H](CCCCN)C(=O)N[C@@H](CCCCN)C(=O)N[C@@H](CCCNC(=N)N)C(=O)N[C@@H](CCCCN)C(=O)N[C@H](C(=O)NCC(=O)NCC(=O)O)C(C)C)NC(=O)CC[C@@H](C)[C@H]1CC[C@H]2[C@@H]3[C@H](O)C[C@@H]4C[C@H](O)CC[C@]4(C)[C@H]3CC[C@]12C)C(=O)NCC(=O)NCC(=O)O` [(CDCA-C-SV40)2] (I: Chenodeoxycholyl-CGYGPKKKRKVGG-OH / II: Chenodeoxycholyl-CGYGPKKKRKVGG-OH; disulfide I:1-II:1), the cytotoxicity entry is “potent cytotoxicity” with EL4 lymphoma cells (95 and 190 μM); “potent cytotoxicity” with 4T1 breast cancer cells; “potent cytotoxicity” in the data set with B16 melanoma cells; “potent cytotoxicity” in data set [1]; “potent cytotoxicity” in data set [2]; “potent cytotoxicity” in data set [3]. Moreover, the EC50 in the data set with EL4 lymphoma cells (EL4 lymphoma cells, flow cytometry, read-out: EC50 (cell death / kill curve)) turned out to be 3.2 µM. For the same molecule, the “stability of dimer compared with corresponding monomer” value in [4] was “markedly higher stability”. In addition, the MSCs growth entry in the data set with murine MSCs is on record as “diminished but was still present”. Moreover, in data set [5], the “cell death of MSCs” value was “significant cell death”.
